Tested on: KB
Assay: Cytotoxicity against human KB cells after 24 hrs by MTT assay
Format: functional, cell-based

Compound | IC50
C[C@@]12C=C[C@@H]3[C@]4(CCC[C@]3(C)C(=O)OC4O1)[C@H]2CC(=O)c1ccoc1 (some centres undefined) [HYPOPURIN C] | > 100 µM
CC1=C[C@H]2OC3OC(=O)[C@@]4(C)CCC[C@@]3([C@@H]24)[C@H]1CC(=O)c1ccoc1 [HYPOPURIN B] | > 100 µM
CC1=C[C@H]2OC(=O)[C@@]3(C)CCC[C@@](C)([C@@H]23)[C@H]1CC(=O)c1ccoc1 [HYPOPURIN A] | 9.4 µM
CC1=C[C@H]2OC(=O)[C@@]3(C)CCC[C@@](C)([C@@H]23)[C@H]1CCC1=CCOC1=O [HYPOPURIN D] | > 100 µM

— ChEMBL document CHEMBL1148960, “Furanolabdane diterpenes from Hypoestes purpurea” (J Nat Prod, 2004)
